Data set [1] deals with NCIH460, HCT116, MDAMB-231/U 251. Kind of data set: Anti-cancer screen, mean GI50 over the cell lines. The data set is classed as cell-based. The protocol:
(§1) Experimental drugs are screened for anti-cancer activity in three cell lines for their GI50, TGI and LC50 values (using five concentrations for each compound). The cell lines are maintained in DMEM containing 10% fetal bovine serum. 96 well micro titer plates are inoculated with cells in 100 μL for 24 hours at 37° C., 5% CO2, 95% air and 100% relative humidity. 5000 HCT116 cells/well, 5000 NCIH460 cells/well and 5000 U251 cells/well are plated. A separate plate with these cell lines is also inoculated to determine cell viability before the addition of the compounds (T0), (See Table I).
(§2) Following 24-hours incubation, experimental drugs are added to the 96 well plates. Each plate contains one of the above cell lines and the following in triplicate: five different concentrations (0.01, 0.1, 1, 10 and 100 μM) of four different compounds, appropriate dilutions of a cytotoxic standard and control (untreated) wells. Compounds are dissolved in DMSO to make 20 mM stock solutions on the day of drug addition and frozen at −20° C. Serial dilutions of these 20 mM stock solutions are made in complete growth medium such that 100 μL of these drug solutions in medium, of final concentrations equaling 0.01, 0.1, 1, 10 and 100 μM can be added to the cells in triplicate. Standard drugs whose anti-cancer activity has been well documented and which are regularly used are Doxorubicin and SAHA, (See Table I).
(§3) For T0 measurement, 24 hours after seeding the cells, 10 μL of 3-(4,5-Dimethyl-2-thiazolyl)-2,5-diphenyl-2H-tetrazolium (MTT) solution per well is added and incubation carried out for 3 hours at 37° C., 5% CO2, 95% air and 100% relative humidity, protected from light. Cells incubated with compounds for 48 hours are treated similarly except with the addition of 20 μL MTT solution per well and a subsequent incubation under the same conditions. After 3 hours of MTT incubation, well contents are aspirated carefully followed by addition of 150 μL DMSO per well. Plates are agitated to ensure solution of the formazan crystals in DMSO and absorbance read at 570 nm, (See Table I).
(§4) Percent growth is calculated for each compound's concentration relative to the control and zero measurement wells (T0; viability right before compound addition). If a test well's O.D. value is greater than the T0 measurement for that cell line % Growth=(test−zero)/(control−zero)×100

The conditions of data set [2]: mouse, in vivo. The method, then: (§5) All test compound/standard drugs were delivered by gavage in a volume of 10 ml/kg. Drugs were administered every day for single time to a period of 21 days. Control mice were treated with the drug solvent/vehicle. Tumor size is measured every alternate days and body weight is recorded daily.
(§6) • a) Tumor Volume Inhibition (TVI): A TVI value higher than 80% is indicative of active compounds. • b) T/C % is also another indicator for the activity. A reproducible 20% T/C is considered as therapeutically active. • c) Log Cell Kill (LCK): A LCK value greater than 1 is indicative of active compounds. • d) Relative Tumor Volume (RTV), Tumor Delay and % Tumor volume change are also considered as valuable additional parameters for assessment. • e) Toxic effects of drug treatment were assessed by Body Weight Loss % • f) Lethal toxicity was defined as any death in treated groups occurring before any control death. Mice were inspected daily for mortality and toxic clinical signs.

A further data set relates to NCI H460 Xenograft. The data set can be described thus: In-vivo anti-cancer activity, NCI H460 xenograft model. The following applies: NCI H460 Xenograft model, in words. Set-up: species or system SCID mice. The method, then: Experiments were carried out using 6-8 week old female athymic SCID (Severe Combined Immune Deficient) mice. The mice were kept in laminar flow rooms (housed in Individually Ventilated Cages) at constant temperature and humidity. They had free access to food and water. Tumors were obtained form ATCC and maintained by s.c. passages of tumor fragments (about 2×2×2 mm) in healthy mice according to standard reported procedures. Each experimental group included six/eight mice bearing bilateral tumors. Tumors were implanted on day 0, and tumor growth was followed by biweekly measurements of tumor diameters with a Vernier caliper. Tumor Volume (TV) was calculated according to the following formula: TV (mm^3)=d^2 XD/2, where d and D are the shortest diameter and the longest diameter of the tumor, respectively. The drug treatment started when tumors were just measurable (Mean TV=150-200 mm^3).
as §5, §6

In the next data set the test system is HCT116 cells. The data set can be described thus: Anti-cancer screen (MTT), HCT116 cells. The class given is cell-based. The settings on record: Homo sapiens, HCT-116, HCT116, 48 hours, concentrations tested 0.01-100 μM. The protocol: as §1, §2, §3, §4
For a further data set, the system named is IL-6. The data set can be described thus: IL-6 in culture supernatants of NCIH 460 cells (ELISA). The data set is classed as cell-based, Human. The method, then: Human Lung Cancer cell line (NCIH 460) is used for IL-6 measurement. 5000 cells/well were seeded in a 96 well plate and incubated in CO2 incubator at 37° C. for 24 hours. After 24 hours of incubation the medium from all wells were completed removed and added 100 μl of fresh DMEM containing 10% FCS. 100 μl of different concentrations of the drug were added and incubated for 5 hours in CO2 incubator at 37° C. After 5 hours of incubation the supernatants were collected and stored at −80° C. The concentration of IL-6 in the supernatant was measured using ELISA kit and the IC50 value of the compound was determined from the dose response curve, (See Table II).
In general terms: In an ELISA, binding on a coated surface is turned into a signal by an enzyme label.

The test system of a further data set is NCIH460 cells. The data set can be described thus: Anti-cancer screen (MTT), NCIH460 cells. The class given is cell-based. The settings on record: Homo sapiens, NCI-H460, NCIH460, 48 hours, concentrations tested 0.01-100 μM. The method, then: as §1, §2, §3, §4
The next data set concerns MDAMB-231/U 251. Kind of data set: Anti-cancer screen (MTT), MDAMB-231/U 251 cells. The class given is cell-based. The settings on record: MDAMB-231/U 251, 48 hours, concentrations tested 0.01-100 μM. The method, then:
as §1, §2, §3, §4

The mark [3] stands for this setting: read-out: LC50 (the source's name).

Structures are written as SMILES.

The source of these data is patent US7786142B2, “Heterocyclic compounds as pSTAT3/IL-6 inhibitors” (Orchid Research Laboratories, Ltd., priority 2005, dated 2010).

In general, GI50 refers to the concentration at which growth is held to half of that of the control. A higher GI50 goes with less potent growth inhibition. In general, inhibition refers to the drop in the measured response relative to a control, in per cent. The IC50 is the concentration that gives 50% inhibition.

Take `COc1ccc(CNC[C@H](O)COc2cccc3[nH]c4ccccc4c23)c(OC)c1` [Example 25, (2S)-1-(9H-carbazol-4-yloxy)-3-[(2,4-dimethoxybenzyl)amino]propan-2-ol]: the GI50 amounted to 6.4 µM in data set [1], 5.6 µM in the data set on HCT116 cells, 0.67 µM with NCIH460 cells and 13 µM in the data set with MDAMB-231/U 251. Also, the body weight loss result in data set [2] is “no body weight loss was observed”. For the same molecule, in the data set with NCI H460 Xenograft, the in-vivo anti-cancer activity result is recorded as “good anti-cancer activity”. Also, the IC (TGI) came to 48 µM with HCT116 cells, 55 µM with NCIH460 cells and 49 µM in the data set on MDAMB-231/U 251. The LC50 (concentration for 50% net cell kill relative to T0) with HCT116 cells amounted to 79 µM. This molecule showed an inhibition at 0.1 µM with IL-6 (Homo sapiens, NCI-H460, 0.1 μM, NCIH 460, 5 hours) of 36%. The molecule further registered an inhibition at 1 µM with IL-6 (Homo sapiens, NCI-H460, 1 μM, NCIH 460, 5 hours) of 50.9%. Besides, in the data set on IL-6 (Homo sapiens, NCI-H460, NCIH 460, 5 hours, read-out: IL-6 Inhibition IC50), the IC50 is 0.78 µM. For the same molecule, the IL-6 inhibition entry with IL-6 (in words) is on record as “very good IL-6 inhibition”. Further, the CC50 was found to be 68 µM with NCIH460 cells (setting [3]) and 81 µM in the data set on MDAMB-231/U 251 (setting [3]).
